The values that follow come from publication PMC8151276, “An Integrated Approach toward NanoBRET Tracers for Analysis of GPCR Ligand Engagement” (Molecules, 2021).

One experiment addresses T1, FZD5 (Homo sapiens, UniProt Q13467).
T1 construct: purchased Promega (in-house HiBiT-GPCR construct library, NanoBRET)
Description: NanoBRET screen HiBiT-FZD5 in HEK293. It is filed as binding. The method, then:
(§1) Each tracer candidate was screened across the entire library of HiBiT-GPCR constructs using NanoBRET as the detection modality. As depicted in Figure 4A, the specificity of interactions was evaluated through decrease in BRET due to competitive displacement of a bound tracer by excess parental compound. Each tracer was analyzed for binding to each HiBiT-GPCR fusion in the absence and in the presence of competing parental compound. Briefly, HEK293 cells were transfected with HiBiT-GPCR constructs diluted into promoterless DNA to reduce expression and maximize translocation to the cell surface. Each tracer candidate was then screened at concentrations of 1 μM and 0.1 μM across cells expressing these fusions. Cells were treated for 1.5 h with tracer either alone or in the presence of 20 μM competing parental compound (i.e., control). BRET was measured upon addition of purified LgBiT and subsequent complementation with HiBiT genetically fused to a GPCR. The specificity of interactions was assessed through a decrease in BRET signal due to competitive displacement of the bound tracer. To further gauge the robustness of these interactions, the fold response over the control (i.e., BRETtracer/BRETcontrol) was calculated. We chose a 1.5-fold response, which translates to ≥7-fold signal over noise as the minimal threshold required to score an interaction as positive. […]. Below we highlight the screening results obtained for our exemplary fluorescent tracers based on Clozapine, Amitriptyline and AZD1283.
(§2) HiBiT-GPCR DNA constructs were diluted in 10 mM Tris pH 8 to a final concentration of 0.01 μg/μL, arrayed in 96-well plates and stored at −20 °C. For transfection, HEK293 cells were suspended in Opti-MEM (without phenol red) supplemented with 2% fetal bovine serum (Seradigm) and 100 units/mL penicillin–streptomycin (Gibco) at a final concentration of 220,000 cells/mL and dispensed into white 96-well plates at 90 μL/well. Subsequent transfections and screens were carried using an Agilent Bravo Automated Liquid Handling Platform. First, the 96-well HiBiT DNA arrays were diluted 25-fold in Opti-MEM (without serum or phenol red) to a final concentration of 0.0004 μg/μL and 20 μL of the diluted DNAs were transferred into new 96-well plates. Next, promoterless carrier DNA (1 μg/μL) was diluted 25-fold (0.04 μg/μL) and then dispensed into the diluted arrays at 20 μL/well. Following brief mixing, Viafect transfection reagent (Promega) diluted 16-fold into Opti-MEM was dispensed into the plates at 40 μL/well. After mixing by pipetting, plates were incubated for 10 min on the pipetting station deck. The DNA-transfection reagent complexes were then added to plates containing cells. To facilitate the screen, 10 μL of DNA-transfection reagent complexes were added in duplicates to the top 4 and bottom 4 rows, resulting in two identical 48-well arrays per plate. Plates with transfected cells were incubated for 18–20 h at 37 °C/5% CO2. A screen of each tracer across the entire library using two different concentrations requires duplicate plates of transfected cells. Depending on the number of tracers being screened, transfections can be scaled up using the same ratios. The next day, for each tracer, four 20× screening solutions in tracer dilution buffer (Promega) were prepared: two duplicates at final concentration of 20 μM and two duplicates at a final concentration of 2 μM. A competing unmodified compound was added to one of each duplicate at a final concentration of 400 μM. The four resulting solutions were diluted 4-fold in Opti-MEM without serum or phenol red to generate 5× solutions (5 µM and 0.5 µM tracer +/− 100 μM competing compound). To screen the library, a BioTek MultiFlo FX liquid dispenser was used to dispense 22.5 µL of tracer solution to the top 4 rows and 22.5 µL tracer + competing compound solution to the 4 bottom rows. Plates were briefly mixed on an orbital shaker and incubated for 1.5 h at room temperature. […]

Another experiment addresses T2, SSTR2 (Homo sapiens, UniProt P30874).
T2 construct: purchased Promega (in-house HiBiT-GPCR construct library, NanoBRET)
Description: NanoBRET screen HiBiT-SSTR2 in HEK293. Type of experiment: binding. The method, then:
as §1, §2

T2 sequence (P30874 whole entry): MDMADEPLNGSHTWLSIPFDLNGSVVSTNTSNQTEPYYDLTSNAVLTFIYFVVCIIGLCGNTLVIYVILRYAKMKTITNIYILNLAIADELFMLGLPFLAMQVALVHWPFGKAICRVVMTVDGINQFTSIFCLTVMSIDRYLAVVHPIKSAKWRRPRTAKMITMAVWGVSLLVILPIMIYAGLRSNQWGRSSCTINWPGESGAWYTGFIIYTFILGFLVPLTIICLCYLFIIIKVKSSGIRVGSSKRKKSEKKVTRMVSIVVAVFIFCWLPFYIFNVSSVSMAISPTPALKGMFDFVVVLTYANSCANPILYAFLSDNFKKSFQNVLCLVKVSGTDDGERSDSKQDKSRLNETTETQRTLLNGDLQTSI
T1 sequence (Q13467 27-585): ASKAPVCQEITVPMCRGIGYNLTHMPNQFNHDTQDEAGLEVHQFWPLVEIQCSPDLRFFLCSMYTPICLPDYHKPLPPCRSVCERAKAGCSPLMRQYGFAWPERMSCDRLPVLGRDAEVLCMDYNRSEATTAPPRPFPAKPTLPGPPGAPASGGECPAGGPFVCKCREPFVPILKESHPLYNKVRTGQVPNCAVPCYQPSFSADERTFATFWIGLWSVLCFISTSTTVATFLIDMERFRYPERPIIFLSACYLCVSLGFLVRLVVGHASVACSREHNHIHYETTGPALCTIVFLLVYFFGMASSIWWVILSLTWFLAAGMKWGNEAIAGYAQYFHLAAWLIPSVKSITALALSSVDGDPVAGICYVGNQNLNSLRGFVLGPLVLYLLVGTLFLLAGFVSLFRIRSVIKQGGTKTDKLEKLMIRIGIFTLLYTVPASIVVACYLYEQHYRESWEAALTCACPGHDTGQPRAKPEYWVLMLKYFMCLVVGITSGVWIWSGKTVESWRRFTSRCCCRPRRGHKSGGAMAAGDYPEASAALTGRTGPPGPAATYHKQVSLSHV

`CN(C)CCC=C1c2ccccc2CCc2ccc(C(=O)NCCNC(=O)CCOCCOCCOCCOCCNC(=O)CCc3ccc4n3[B-](F)(F)[N+]3=C(c5ccc[nH]5)C=CC3=C4)cc21` [Amitriptyline-a-2-NB590]: the “NanoBRET Fold Response” value on FZD5 (tracer at 0.1μM) is listed as 1.01; on FZD5 (tracer at 1μM) it was 0.97; at SSTR2 (tracer at 0.1μM), 1.03; at SSTR2 (tracer at 1μM) it was 1.03.
Regarding `CCOC(=O)c1cc(C#N)c(N2CCC(C(=O)NS(=O)(=O)Cc3ccccc3/C=C/C(=O)NCCNC(=O)CCc3ccc4n3[B-](F)(F)[N+]3=C(c5ccc[nH]5)C=CC3=C4)CC2)nc1C` [AZD1283-1-NB590], the “NanoBRET Fold Response” value at FZD5 (FZD5, 0.1μM) is 1.07; on FZD5 (FZD5, 1μM), 1.05; on SSTR2 (SSTR2, 0.1μM), 1.02; at SSTR2 (SSTR2, 1μM), 1.09.
